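Step 1: Grow cells in 96-well plates. Step 2: Expose to compound for 48 hours at 5 concentrations. Step 3: Interpolate endpoints linearly; if unreached, use highest concentration. GI50 = concentration required for 50% inhibition of growth. At the TGI there is no net growth.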
How the values were obtained:
Assay in all cases: NCI anticancer screen, dose series, 48 h
UO-31 renal = system: UO-31 renal
NCI-H460 lung = system: NCI-H460 lung
HCT-116 colon = system: HCT-116 colon
A498 renal = system: A498 renal
SK-MEL-28 melanoma = system: SK-MEL-28 melanoma
UACC-62 melanoma = system: UACC-62 melanoma
SW-620 colon = system: SW-620 colon
HCC-2998 colon = system: HCC-2998 colon
SF-539 CNS = system: SF-539 CNS
NCI-H522 lung = system: NCI-H522 lung
HT29 colon = system: HT29 colon
NCI-H23 lung = system: NCI-H23 lung
MOLT-4 leukemia = system: MOLT-4 leukemia
NCI/ADR-RES ovarian = system: NCI/ADR-RES ovarian
MCF7 breast = system: MCF7 breast
SF-295 CNS = system: SF-295 CNS
IGROV1 ovarian = system: IGROV1 ovarian
K-562 leukemia = system: K-562 leukemia
SK-OV-3 ovarian = system: SK-OV-3 ovarian
SN12C renal = system: SN12C renal
MDA-MB-231 breast = system: MDA-MB-231 breast
RXF 393 renal = system: RXF 393 renal
ACHN renal = system: ACHN renal
UACC-257 melanoma = system: UACC-257 melanoma
HCT-15 colon = system: HCT-15 colon
SNB-19 CNS = system: SNB-19 CNS
HL-60(TB) leukemia = system: HL-60(TB) leukemia
PC-3 prostate = system: PC-3 prostate
DU-145 prostate = system: DU-145 prostate
M14 melanoma = system: M14 melanoma
HOP-62 NSCLC = system: HOP-62 NSCLC
MDA-MB-435 = system: MDA-MB-435
SK-MEL-2 melanoma = system: SK-MEL-2 melanoma
LOX IMVI melanoma = system: LOX IMVI melanoma
OVCAR-8 ovarian = system: OVCAR-8 ovarian
SK-MEL-5 melanoma = system: SK-MEL-5 melanoma
786-0 renal = system: 786-0 renal
OVCAR-3 ovarian = system: OVCAR-3 ovarian
NCI-H226 lung = system: NCI-H226 lung
KM12 colon = system: KM12 colon
MALME-3M melanoma = system: MALME-3M melanoma
COLO 205 colon = system: COLO 205 colon
U251 CNS = system: U251 CNS
HS 578T breast = system: HS 578T breast
SNB-75 CNS = system: SNB-75 CNS
SR leukemia = system: SR leukemia
OVCAR-5 ovarian = system: OVCAR-5 ovarian
TK-10 renal = system: TK-10 renal
A549 NSCLC = system: A549 NSCLC
HOP-92 NSCLC = system: HOP-92 NSCLC
T-47D breast = system: T-47D breast
OVCAR-4 ovarian = system: OVCAR-4 ovarian
SF-268 CNS = system: SF-268 CNS
CCRF-CEM leukemia = system: CCRF-CEM leukemia
CAKI-1 renal = system: CAKI-1 renal

SMILES: COc1cc(Nc2ncnc(Nc3ccc4c(n3)NC(=O)C(C)(C)O4)n2)cc(OC)c1OC
- GI50 (UO-31 renal): 329 nM
- TGI (UO-31 renal): > 100000 nM
- GI50 (NCI-H460 lung): 3200 nM
- TGI (NCI-H460 lung): > 100000 nM
- GI50 (HCT-116 colon): 3950 nM
- TGI (HCT-116 colon): > 100000 nM
- GI50 (A498 renal): 31 nM
- TGI (A498 renal): 290 nM
- GI50 (SK-MEL-28 melanoma): > 23900 nM
- TGI (SK-MEL-28 melanoma): > 100000 nM
- GI50 (UACC-62 melanoma): 2360 nM
- TGI (UACC-62 melanoma): > 100000 nM
- GI50 (SW-620 colon): 2730 nM
- TGI (SW-620 colon): > 100000 nM
- GI50 (HCC-2998 colon): > 100000 nM
- TGI (HCC-2998 colon): > 100000 nM
- GI50 (SF-539 CNS): 230 nM
- TGI (SF-539 CNS): 673 nM
- GI50 (NCI-H522 lung): 625 nM
- TGI (NCI-H522 lung): 11200 nM
- GI50 (HT29 colon): 803 nM
- TGI (HT29 colon): > 100000 nM
- GI50 (NCI-H23 lung): 2590 nM
- TGI (NCI-H23 lung): > 100000 nM
- GI50 (MOLT-4 leukemia): 5240 nM
- TGI (MOLT-4 leukemia): > 100000 nM
- TGI (NCI/ADR-RES ovarian): > 100000 nM
- GI50 (MCF7 breast): 1320 nM
- TGI (MCF7 breast): > 100000 nM
- GI50 (SF-295 CNS): 754 nM
- TGI (SF-295 CNS): > 100000 nM
- GI50 (IGROV1 ovarian): 247 nM
- TGI (IGROV1 ovarian): 1720 nM
- GI50 (K-562 leukemia): 3550 nM
- TGI (K-562 leukemia): > 100000 nM
- GI50 (SK-OV-3 ovarian): 929 nM
- GI50 (SN12C renal): 411 nM
- TGI (SN12C renal): > 100000 nM
- GI50 (MDA-MB-231 breast): 1330 nM
- TGI (MDA-MB-231 breast): > 100000 nM
- GI50 (RXF 393 renal): 148 nM
- TGI (RXF 393 renal): 622 nM
- GI50 (ACHN renal): 160 nM
- TGI (ACHN renal): 23700 nM
- GI50 (UACC-257 melanoma): 3260 nM
- TGI (UACC-257 melanoma): > 100000 nM
- GI50 (HCT-15 colon): 1700 nM
- TGI (HCT-15 colon): > 100000 nM
- GI50 (SNB-19 CNS): 9780 nM
- TGI (SNB-19 CNS): > 100000 nM
- GI50 (HL-60(TB) leukemia): 4520 nM
- TGI (HL-60(TB) leukemia): > 100000 nM
- GI50 (PC-3 prostate): 1460 nM
- TGI (PC-3 prostate): > 100000 nM
- GI50 (DU-145 prostate): 2030 nM
- TGI (DU-145 prostate): > 100000 nM
- GI50 (M14 melanoma): 5150 nM
- TGI (M14 melanoma): > 100000 nM
- GI50 (HOP-62 NSCLC): 555 nM
- TGI (HOP-62 NSCLC): > 66500 nM
- GI50 (MDA-MB-435): 2090 nM
- TGI (MDA-MB-435): > 100000 nM
- GI50 (SK-MEL-2 melanoma): > 100000 nM
- TGI (SK-MEL-2 melanoma): > 100000 nM
- GI50 (LOX IMVI melanoma): 633 nM
- TGI (LOX IMVI melanoma): > 100000 nM
- GI50 (OVCAR-8 ovarian): 10900 nM
- TGI (OVCAR-8 ovarian): > 100000 nM
- GI50 (SK-MEL-5 melanoma): > 100000 nM
- TGI (SK-MEL-5 melanoma): > 100000 nM
- GI50 (786-0 renal): 492 nM
- TGI (786-0 renal): > 22600 nM
- GI50 (OVCAR-3 ovarian): 3460 nM
- TGI (OVCAR-3 ovarian): > 100000 nM
- GI50 (NCI-H226 lung): 297 nM
- TGI (NCI-H226 lung): > 100000 nM
- GI50 (KM12 colon): 395 nM
- TGI (KM12 colon): > 100000 nM
- GI50 (MALME-3M melanoma): 8690 nM
- TGI (MALME-3M melanoma): > 100000 nM
- GI50 (COLO 205 colon): 829 nM
- TGI (COLO 205 colon): > 100000 nM
- GI50 (U251 CNS): 1500 nM
- TGI (U251 CNS): > 100000 nM
- GI50 (HS 578T breast): 149 nM
- TGI (HS 578T breast): 660 nM
- GI50 (SNB-75 CNS): 169 nM
- TGI (SNB-75 CNS): 724 nM
- GI50 (SR leukemia): 2240 nM
- TGI (SR leukemia): > 100000 nM
- GI50 (OVCAR-5 ovarian): 602 nM
- TGI (OVCAR-5 ovarian): > 100000 nM
- GI50 (TK-10 renal): 457 nM
- TGI (TK-10 renal): > 100000 nM
- GI50 (A549 NSCLC): 1250 nM
- TGI (A549 NSCLC): > 100000 nM
- GI50 (HOP-92 NSCLC): 243 nM
- TGI (HOP-92 NSCLC): 1710 nM
- GI50 (T-47D breast): 1180 nM
- TGI (T-47D breast): > 100000 nM
- TGI (OVCAR-4 ovarian): > 100000 nM
- GI50 (SF-268 CNS): 544 nM
- TGI (SF-268 CNS): > 100000 nM
- GI50 (CCRF-CEM leukemia): 3730 nM
- TGI (CCRF-CEM leukemia): > 100000 nM
- GI50 (CAKI-1 renal): 319 nM
- TGI (CAKI-1 renal): > 100000 nM

— PubChem BioAssay (NCI)
